Legend:
TBK1 = target: T1, TBK1 (Homo sapiens, UniProt Q9UHD2); experiment: FRET-based Z'-LYTE TBK1 enzymatic assay; assay type: biochemical; design: purchased Thermo Scientific A31513; settings: 100 µM ATP
T1 sequence (Q9UHD2 1-729): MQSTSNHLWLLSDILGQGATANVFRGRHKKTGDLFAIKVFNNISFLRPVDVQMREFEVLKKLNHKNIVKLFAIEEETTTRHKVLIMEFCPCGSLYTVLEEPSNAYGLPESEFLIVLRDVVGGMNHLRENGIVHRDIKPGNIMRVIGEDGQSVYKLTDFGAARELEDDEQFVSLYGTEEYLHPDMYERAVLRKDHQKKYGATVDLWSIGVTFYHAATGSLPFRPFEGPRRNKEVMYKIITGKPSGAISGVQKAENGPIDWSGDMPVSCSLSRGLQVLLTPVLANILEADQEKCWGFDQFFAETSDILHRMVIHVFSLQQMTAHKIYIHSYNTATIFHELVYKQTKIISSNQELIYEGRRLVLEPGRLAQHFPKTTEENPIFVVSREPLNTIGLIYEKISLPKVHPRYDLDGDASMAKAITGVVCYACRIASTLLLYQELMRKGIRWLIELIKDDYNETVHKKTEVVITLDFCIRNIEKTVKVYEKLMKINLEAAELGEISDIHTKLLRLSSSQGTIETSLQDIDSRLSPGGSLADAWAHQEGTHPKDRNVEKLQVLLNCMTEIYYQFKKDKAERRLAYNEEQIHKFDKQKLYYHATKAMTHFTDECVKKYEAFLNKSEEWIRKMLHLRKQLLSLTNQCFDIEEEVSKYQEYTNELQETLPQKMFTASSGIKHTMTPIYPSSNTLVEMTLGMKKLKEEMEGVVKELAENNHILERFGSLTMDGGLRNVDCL

[1] = Cytotoxicity to normal cells; assay type: cell-based; settings: human, human umbilical vein endothelial cells (HUVECs)
Source text: Figure S1. The cytotoxicity of compound 15y on Human Umbilical Vein Endothelial Cells
(HUVECs). Data are representative of 3 independent experiments and are shown in mean ± SD
value. Nolin fit 4-parameters model were used to fit the curve and to calculate IC50 values by
(1 picture or pasted object on this page, not shown here)

[2] = test system: ifnb and cxcl10 gene expression in RAW264.7 cells; experiment: mRNA detection of TBK1 downstream genes (RT-PCR), LPS-stimulated RAW264.7 cells; assay type: cell-based; settings: LPS-stimulated murine RAW264.7 cells
Rse = Rse (Homo sapiens, UniProt Q06418); experiment: Kinase selectivity profile (SelectScreen); assay type: biochemical; settings: remaining kinase activity at 1.0 μM
Experimental: (§1) Compound 15y was evaluated for their inhibitory activities against 31 kinases at a single concentration (1 µM). Two different assay platforms were available for profiling—activity and binding. The Z′-LYTE and Adapta kinase activity assays were used most extensively for profiling and a smaller subset of kinases might be profiled using the LanthaScreen Eu Kinase Binding Assays.

EphB4 = EphB4 (Homo sapiens, UniProt P54760); experiment: Kinase selectivity profile (SelectScreen); assay type: biochemical; settings: remaining kinase activity at 1.0 μM
Experimental: as §1

MEK1 = MEK1 (Homo sapiens, UniProt Q02750); experiment: Kinase selectivity profile (SelectScreen); assay type: biochemical; settings: remaining kinase activity at 1.0 μM
Experimental: as §1

PKBα = PKBα (Homo sapiens, UniProt P31749); experiment: Kinase selectivity profile (SelectScreen); assay type: biochemical; settings: remaining kinase activity at 1.0 μM
Experimental: as §1

EphA5 = EphA5 (Homo sapiens, UniProt P54756); experiment: Kinase selectivity profile (SelectScreen); assay type: biochemical; settings: remaining kinase activity at 1.0 μM
Experimental: as §1

SRPK1 = SRPK1 (Homo sapiens, UniProt Q96SB4); experiment: Kinase selectivity profile (SelectScreen); assay type: biochemical; settings: remaining kinase activity at 1.0 μM
SRPK1, sequence (Q96SB4 whole entry): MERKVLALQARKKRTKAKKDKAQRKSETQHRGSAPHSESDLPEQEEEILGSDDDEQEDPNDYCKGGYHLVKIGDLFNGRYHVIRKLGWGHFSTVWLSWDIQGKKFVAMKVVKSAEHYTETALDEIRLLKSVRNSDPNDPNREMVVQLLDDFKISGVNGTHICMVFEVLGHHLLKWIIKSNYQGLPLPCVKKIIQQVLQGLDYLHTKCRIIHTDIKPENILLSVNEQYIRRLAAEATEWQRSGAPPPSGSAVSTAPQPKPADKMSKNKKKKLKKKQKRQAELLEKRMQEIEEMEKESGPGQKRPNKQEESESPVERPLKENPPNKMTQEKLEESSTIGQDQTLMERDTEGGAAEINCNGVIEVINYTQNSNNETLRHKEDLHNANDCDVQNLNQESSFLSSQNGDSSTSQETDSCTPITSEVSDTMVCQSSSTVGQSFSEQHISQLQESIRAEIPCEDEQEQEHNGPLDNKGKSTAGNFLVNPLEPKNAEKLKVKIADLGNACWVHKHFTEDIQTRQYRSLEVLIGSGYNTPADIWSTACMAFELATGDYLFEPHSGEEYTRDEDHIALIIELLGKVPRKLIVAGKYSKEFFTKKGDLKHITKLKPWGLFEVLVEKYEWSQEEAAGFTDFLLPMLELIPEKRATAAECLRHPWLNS
Experimental: as §1

IGF-1R = IGF-1R (Homo sapiens, UniProt P08069); experiment: Kinase selectivity profile (SelectScreen); assay type: biochemical; settings: remaining kinase activity at 1.0 μM
Experimental: as §1

CK1γ1 = CK1γ1 (Homo sapiens, UniProt Q9HCP0); experiment: Kinase selectivity profile (SelectScreen); assay type: biochemical; settings: remaining kinase activity at 1.0 μM
Experimental: as §1

PI3K(p110b/p85a) = PI3K(p110b/p85a) (Homo sapiens, UniProt P42338); experiment: Kinase selectivity profile (SelectScreen); assay type: biochemical; settings: remaining kinase activity at 1.0 μM
PI3K(p110b/p85a), sequence (P42338 whole entry): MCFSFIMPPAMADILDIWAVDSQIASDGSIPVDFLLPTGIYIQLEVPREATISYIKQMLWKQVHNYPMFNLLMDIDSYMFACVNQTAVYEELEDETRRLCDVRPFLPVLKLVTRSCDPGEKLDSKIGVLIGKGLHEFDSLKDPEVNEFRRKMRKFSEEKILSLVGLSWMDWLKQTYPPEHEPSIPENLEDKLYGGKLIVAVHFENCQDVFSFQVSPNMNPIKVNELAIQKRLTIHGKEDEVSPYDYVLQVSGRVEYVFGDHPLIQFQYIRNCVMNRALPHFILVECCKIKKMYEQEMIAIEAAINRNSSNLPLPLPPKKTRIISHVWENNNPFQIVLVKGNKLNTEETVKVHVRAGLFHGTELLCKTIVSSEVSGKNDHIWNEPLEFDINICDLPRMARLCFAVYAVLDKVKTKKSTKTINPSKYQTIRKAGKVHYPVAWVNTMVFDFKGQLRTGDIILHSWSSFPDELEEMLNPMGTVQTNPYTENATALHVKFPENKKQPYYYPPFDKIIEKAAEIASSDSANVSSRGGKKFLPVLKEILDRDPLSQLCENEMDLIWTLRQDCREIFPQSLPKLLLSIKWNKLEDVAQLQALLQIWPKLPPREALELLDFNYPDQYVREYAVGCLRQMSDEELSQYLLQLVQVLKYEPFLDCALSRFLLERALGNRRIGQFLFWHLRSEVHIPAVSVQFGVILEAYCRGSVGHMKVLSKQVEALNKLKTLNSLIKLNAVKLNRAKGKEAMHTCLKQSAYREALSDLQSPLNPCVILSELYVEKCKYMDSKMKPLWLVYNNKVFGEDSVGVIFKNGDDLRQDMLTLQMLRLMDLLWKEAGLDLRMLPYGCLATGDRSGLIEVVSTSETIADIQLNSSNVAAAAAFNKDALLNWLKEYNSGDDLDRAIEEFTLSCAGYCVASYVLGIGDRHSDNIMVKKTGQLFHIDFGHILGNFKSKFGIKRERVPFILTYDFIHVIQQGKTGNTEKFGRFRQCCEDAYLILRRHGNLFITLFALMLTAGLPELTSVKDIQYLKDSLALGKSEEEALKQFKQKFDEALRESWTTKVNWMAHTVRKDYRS
PI3K(p110b/p85a), sequence (P27986 whole entry partner): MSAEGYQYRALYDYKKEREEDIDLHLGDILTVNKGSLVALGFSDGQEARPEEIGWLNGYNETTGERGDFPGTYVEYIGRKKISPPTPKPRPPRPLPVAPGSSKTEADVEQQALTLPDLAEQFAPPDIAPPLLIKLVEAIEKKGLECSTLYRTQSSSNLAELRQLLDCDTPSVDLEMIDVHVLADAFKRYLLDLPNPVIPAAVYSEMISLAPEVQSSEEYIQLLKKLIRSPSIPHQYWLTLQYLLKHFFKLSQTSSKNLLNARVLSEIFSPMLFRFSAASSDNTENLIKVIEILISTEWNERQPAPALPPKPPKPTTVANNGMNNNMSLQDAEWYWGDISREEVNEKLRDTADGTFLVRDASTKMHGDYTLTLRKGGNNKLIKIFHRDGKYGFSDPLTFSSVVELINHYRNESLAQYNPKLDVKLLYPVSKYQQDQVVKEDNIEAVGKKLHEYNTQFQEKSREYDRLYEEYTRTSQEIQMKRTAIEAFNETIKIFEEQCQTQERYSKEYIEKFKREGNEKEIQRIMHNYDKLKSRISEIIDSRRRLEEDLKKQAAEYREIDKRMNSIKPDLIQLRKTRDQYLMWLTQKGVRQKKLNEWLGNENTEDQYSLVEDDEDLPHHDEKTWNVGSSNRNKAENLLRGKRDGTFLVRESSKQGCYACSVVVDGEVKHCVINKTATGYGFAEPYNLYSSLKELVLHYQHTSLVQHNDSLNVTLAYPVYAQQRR
Experimental: as §1

EGFR = EGFR (Homo sapiens, UniProt P00533); experiment: Kinase selectivity profile (SelectScreen); assay type: biochemical; settings: remaining kinase activity at 1.0 μM
Experimental: as §1

PKA = PKA (Homo sapiens, UniProt P17612); experiment: Kinase selectivity profile (SelectScreen); assay type: biochemical; settings: remaining kinase activity at 1.0 μM
Experimental: as §1

ALK = ALK (Homo sapiens, UniProt Q9UM73); experiment: Kinase selectivity profile (SelectScreen); assay type: biochemical; settings: remaining kinase activity at 1.0 μM
ALK, sequence (Q9UM73 19-1620): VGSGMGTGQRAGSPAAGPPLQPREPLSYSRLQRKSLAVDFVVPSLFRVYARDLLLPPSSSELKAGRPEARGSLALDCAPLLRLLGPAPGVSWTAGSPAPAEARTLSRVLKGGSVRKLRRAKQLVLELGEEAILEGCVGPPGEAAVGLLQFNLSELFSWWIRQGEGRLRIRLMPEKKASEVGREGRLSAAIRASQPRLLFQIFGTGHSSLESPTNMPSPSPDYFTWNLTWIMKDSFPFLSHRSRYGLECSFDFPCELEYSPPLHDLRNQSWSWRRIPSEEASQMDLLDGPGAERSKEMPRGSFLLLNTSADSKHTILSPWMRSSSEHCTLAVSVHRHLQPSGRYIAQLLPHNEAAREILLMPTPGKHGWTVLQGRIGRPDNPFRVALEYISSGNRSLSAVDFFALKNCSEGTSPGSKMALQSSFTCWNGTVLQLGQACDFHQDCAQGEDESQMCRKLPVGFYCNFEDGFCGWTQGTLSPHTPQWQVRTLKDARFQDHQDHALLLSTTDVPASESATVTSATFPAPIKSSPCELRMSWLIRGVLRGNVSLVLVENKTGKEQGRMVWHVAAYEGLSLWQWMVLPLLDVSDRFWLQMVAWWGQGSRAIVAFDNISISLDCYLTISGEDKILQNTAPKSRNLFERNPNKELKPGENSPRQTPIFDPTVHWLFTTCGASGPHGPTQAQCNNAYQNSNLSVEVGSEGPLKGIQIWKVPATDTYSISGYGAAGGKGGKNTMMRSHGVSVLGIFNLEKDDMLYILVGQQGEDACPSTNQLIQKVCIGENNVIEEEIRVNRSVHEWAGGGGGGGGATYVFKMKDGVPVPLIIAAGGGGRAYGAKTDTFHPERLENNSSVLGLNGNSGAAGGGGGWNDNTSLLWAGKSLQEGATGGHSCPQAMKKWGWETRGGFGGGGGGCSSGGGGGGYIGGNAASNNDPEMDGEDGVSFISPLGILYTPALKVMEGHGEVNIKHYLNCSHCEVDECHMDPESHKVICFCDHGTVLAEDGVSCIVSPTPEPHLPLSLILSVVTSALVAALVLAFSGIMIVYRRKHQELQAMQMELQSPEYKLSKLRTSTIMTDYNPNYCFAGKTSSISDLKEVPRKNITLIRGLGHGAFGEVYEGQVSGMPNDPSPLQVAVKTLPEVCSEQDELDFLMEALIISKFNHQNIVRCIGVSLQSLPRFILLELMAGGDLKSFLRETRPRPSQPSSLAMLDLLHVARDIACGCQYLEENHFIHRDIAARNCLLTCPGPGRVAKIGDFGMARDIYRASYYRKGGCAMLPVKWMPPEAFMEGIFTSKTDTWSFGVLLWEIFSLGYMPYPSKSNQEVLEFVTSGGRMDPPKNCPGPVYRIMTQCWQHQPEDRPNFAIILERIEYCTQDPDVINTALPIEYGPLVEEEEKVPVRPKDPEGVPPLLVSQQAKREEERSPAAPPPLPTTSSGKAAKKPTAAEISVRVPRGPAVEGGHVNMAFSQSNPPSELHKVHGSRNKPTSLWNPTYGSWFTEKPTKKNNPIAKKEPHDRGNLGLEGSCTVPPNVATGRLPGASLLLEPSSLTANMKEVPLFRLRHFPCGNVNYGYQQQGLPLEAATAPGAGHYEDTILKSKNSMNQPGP
Experimental: as §1

PLK3 = PLK3 (Homo sapiens, UniProt Q9H4B4); experiment: Kinase selectivity profile (SelectScreen); assay type: biochemical; settings: remaining kinase activity at 1.0 μM
Experimental: as §1

MAPKAP-K2 = MAPKAP-K2 (Homo sapiens, UniProt P49137); experiment: Kinase selectivity profile (SelectScreen); assay type: biochemical; settings: remaining kinase activity at 1.0 μM
Experimental: as §1

ASK1 = ASK1 (Homo sapiens, UniProt Q99683); experiment: Kinase selectivity profile (SelectScreen); assay type: biochemical; settings: remaining kinase activity at 1.0 μM
Experimental: as §1

PKCθ = PKCθ (Homo sapiens, UniProt Q04759); experiment: Kinase selectivity profile (SelectScreen); assay type: biochemical; settings: remaining kinase activity at 1.0 μM
Experimental: as §1

IKKβ = IKKβ (Homo sapiens, UniProt O14920); experiment: Kinase selectivity profile (SelectScreen); assay type: biochemical; settings: remaining kinase activity at 1.0 μM
Experimental: as §1

PKCα = PKCα (Homo sapiens, UniProt P17252); experiment: Kinase selectivity profile (SelectScreen); assay type: biochemical; settings: remaining kinase activity at 1.0 μM
Experimental: as §1

PKG1α = PKG1α (Homo sapiens, UniProt Q13976); experiment: Kinase selectivity profile (SelectScreen); assay type: biochemical; settings: remaining kinase activity at 1.0 μM
Experimental: as §1

PDGFRβ = PDGFRβ (Homo sapiens, UniProt P09619); experiment: Kinase selectivity profile (SelectScreen); assay type: biochemical; settings: remaining kinase activity at 1.0 μM
PDGFRβ, sequence (P09619 33-1106): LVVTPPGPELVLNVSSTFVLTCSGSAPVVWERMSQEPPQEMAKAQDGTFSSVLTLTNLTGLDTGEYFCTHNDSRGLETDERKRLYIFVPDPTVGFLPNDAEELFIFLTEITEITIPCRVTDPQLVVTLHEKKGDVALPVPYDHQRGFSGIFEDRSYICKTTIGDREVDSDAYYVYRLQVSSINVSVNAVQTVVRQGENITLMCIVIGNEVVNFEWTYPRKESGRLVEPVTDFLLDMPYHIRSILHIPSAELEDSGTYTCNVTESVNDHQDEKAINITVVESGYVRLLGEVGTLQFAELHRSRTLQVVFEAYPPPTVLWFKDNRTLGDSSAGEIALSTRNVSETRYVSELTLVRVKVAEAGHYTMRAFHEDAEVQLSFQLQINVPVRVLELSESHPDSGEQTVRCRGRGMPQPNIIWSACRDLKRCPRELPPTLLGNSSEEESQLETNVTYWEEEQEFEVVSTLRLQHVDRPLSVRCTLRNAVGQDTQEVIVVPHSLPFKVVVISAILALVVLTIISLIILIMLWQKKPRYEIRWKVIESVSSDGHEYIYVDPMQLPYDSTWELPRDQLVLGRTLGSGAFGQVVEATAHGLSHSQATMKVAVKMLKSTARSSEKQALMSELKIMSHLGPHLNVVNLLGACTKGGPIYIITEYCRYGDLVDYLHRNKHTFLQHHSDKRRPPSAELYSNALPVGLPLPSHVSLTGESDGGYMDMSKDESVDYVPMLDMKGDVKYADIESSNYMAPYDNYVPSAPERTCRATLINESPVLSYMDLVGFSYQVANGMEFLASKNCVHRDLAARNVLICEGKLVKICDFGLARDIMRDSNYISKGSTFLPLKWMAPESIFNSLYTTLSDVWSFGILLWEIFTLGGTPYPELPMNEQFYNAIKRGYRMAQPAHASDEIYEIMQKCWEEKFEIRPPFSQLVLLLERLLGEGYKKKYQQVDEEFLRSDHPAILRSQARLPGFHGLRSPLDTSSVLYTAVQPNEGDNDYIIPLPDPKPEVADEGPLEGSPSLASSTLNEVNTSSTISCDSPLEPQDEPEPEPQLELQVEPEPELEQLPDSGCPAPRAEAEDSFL
Experimental: as §1

PRAK = PRAK (Homo sapiens, UniProt Q8IW41); experiment: Kinase selectivity profile (SelectScreen); assay type: biochemical; settings: remaining kinase activity at 1.0 μM
Experimental: as §1

eEF-2K = eEF-2K (Homo sapiens, UniProt O00418); experiment: Kinase selectivity profile (SelectScreen); assay type: biochemical; settings: remaining kinase activity at 1.0 μM
Experimental: as §1

PI3K(p110a/p85a) = PI3K(p110a/p85a) (Homo sapiens, UniProt P42336); experiment: Kinase selectivity profile (SelectScreen); assay type: biochemical; settings: remaining kinase activity at 1.0 μM
Experimental: as §1

SAPK2a = SAPK2a (Homo sapiens, UniProt Q16539); experiment: Kinase selectivity profile (SelectScreen); assay type: biochemical; settings: remaining kinase activity at 1.0 μM
Experimental: as §1

mTOR = mTOR (Homo sapiens, UniProt P42345); experiment: Kinase selectivity profile (SelectScreen); assay type: biochemical; settings: remaining kinase activity at 1.0 μM
Experimental: as §1

PI3K(p120g) = PI3K(p120g) (Homo sapiens, UniProt P48736); experiment: Kinase selectivity profile (SelectScreen); assay type: biochemical; settings: remaining kinase activity at 1.0 μM
Experimental: as §1

Compound: Cc1nc2c(F)cc(-c3n[nH]c4ncc(-c5cccc(S(N)(=O)=O)c5)cc34)cc2n1C(C)C [Compound 15y]
- inhibition at 0.0001 µM (TBK1; compound at 0.1 nM, read-out: TBK1 inhibition (%) 0.1 nM): 33.6%
- inhibition at 0.001 µM (TBK1; compound at 1 nM, read-out: TBK1 inhibition (%) 1 nM): 88.8%
- inhibition at 0.01 µM (TBK1; compound at 10 nM, read-out: TBK1 inhibition (%) 10 nM): 93.8%
- inhibition at 0.1 µM (TBK1; compound at 100 nM, read-out: TBK1 inhibition (%) 100 nM): 102%
- inhibition at 1 µM (TBK1; compound at 1 μM, read-out: TBK1 inhibition (%) 1 μM): 53.9%
- IC50 (TBK1; mean of two separate experiments): 0.0002 µM
- IC50 [1]: 21.2 µM
- inhibition of ifnb and cxcl10 expression [2]: profound activity
- %kinase activity @ 1.0 μM, Rse (Rse): 49%
- %kinase activity @ 1.0 μM, EphB4 (EphB4): 77%
- %kinase activity @ 1.0 μM, MEK1 (MEK1): 52%
- activity at 1 µM (PKBα): 111%
- %kinase activity @ 1.0 μM, EphA5 (EphA5): 51%
- %kinase activity @ 1.0 μM, SRPK1 (SRPK1): 58%
- %kinase activity @ 1.0 μM, IGF-1R (IGF-1R): 88%
- %kinase activity @ 1.0 μM, CK1γ1 (CK1γ1): 33%
- %kinase activity @ 1.0 μM, PI3K(p110b/p85a) (PI3K(p110b/p85a)): 95%
- %kinase activity @ 1.0 μM, EGFR (EGFR): 66%
- %kinase activity @ 1.0 μM, PKA (PKA): 84%
- %kinase activity @ 1.0 μM, ALK (ALK): 28%
- %kinase activity @ 1.0 μM, PLK3 (PLK3): 101%
- %kinase activity @ 1.0 μM, MAPKAP-K2 (MAPKAP-K2): 95%
- %kinase activity @ 1.0 μM, ASK1 (ASK1): 56%
- %kinase activity @ 1.0 μM, PKCθ (PKCθ): 33%
- %kinase activity @ 1.0 μM, IKKβ (IKKβ): 32%
- %kinase activity @ 1.0 μM, PKCα (PKCα): 27%
- %kinase activity @ 1.0 μM, PKG1α (PKG1α): 54%
- %kinase activity @ 1.0 μM, PDGFRβ (PDGFRβ): 21%
- %kinase activity @ 1.0 μM, PRAK (PRAK): 60%
- %kinase activity @ 1.0 μM, eEF-2K (eEF-2K): 108%
- %kinase activity @ 1.0 μM, PI3K(p110a/p85a) (PI3K(p110a/p85a)): 69%
- %kinase activity @ 1.0 μM, SAPK2a (SAPK2a): 60%
- %kinase activity @ 1.0 μM, mTOR (mTOR): 30%
- %kinase activity @ 1.0 μM, PI3K(p120g) (PI3K(p120g)): 32%
